In patent US4347371A, “Disulfide compounds” (Santen Pharmaceutical Co., Ltd., priority 1978, dated 1982):
Like-named read-outs stand apart in the source and are kept apart here.

What was measured:
[1] = test system: angiotensin I-converting enzyme; assay: Suppressive effect on the pressor response to angiotensin I in unanesthetized rats, oral administration (angiotensin I-converting enzyme inhibition); format: in vivo, Male Wistar strain rats; details: rat, angiotensin I 300 ng/kg i.v.
Method: As recently it has been clear that the compounds inhibiting angiotensin I-converting enzyme may be the curative potency against both renal hypertension and essential hypertension, the compounds [I] of this invention are evaluated as antihypertensive agents by the following method.
Male Wistar strain rats weighing 200-300 g were used. Under ether anesthesia, polyethylene cannulae are inserted into carotid artery and jugular vein. The cannula to carotid artery is connected to an electric transducer, while the cannula to jugular vein is connected to an apparatus for continuous infusion. After the complete recovery from anesthesia, angiotensin I is infused intravenously in a dose of 300 ng/kg by the apparatus for continuous infusion, and the pressor response is recorded by polygraph (Nihon Koden, RM-150). The compounds of this invention suspended in 0.5% tragacanth solution are administered orally in a dose of 0.3 ml per 100 g of body weight, and the pressor response to angiotensin I infused intravenously is measured with time.

Aldose reductase = molecular target: T1, Aldose reductase (Rattus norvegicus, UniProt P07943); assay: Inhibitory activity against aldose reductase purified from rat lenses (absorbance at 340 nm); format: biochemical
T1 construct: Aldose reductase is purified from rat lenses; from tissue; host or cells: rat lens

[2] = Acute toxicity test in mice, oral; set-up: species or system male ddy-std. strain mice; details: mouse, in vivo, male ddy-std. mice, 0.5% tragacanth suspension
Method: The male ddy-std. strain mice (4 weeks of age, weighing 19-21 g) were placed in a breeding room of constant temperature and humidity (23°±1° C., 55±5%) and fed freely pellet diet (CE-2, Clea Japan, Inc.) and water ad. libitum for a week. The mice showing the normal growth were selected for the experiment.
Test compound is suspended in 0.5% tragacanth solution, and administered orally in a dose of 0.5 ml per 20 g B.W.

[3] = pH 6.2, DL-glyceraldehyde 4×10^-4 M, NADPH 5×10^-5 M, read-out: IC50 (molar concentration producing 50% inhibition of aldose reductase)

Row | IC50 (Aldose reductase; [3]) [µM] | SMILES | Inhibition (%) of pressor response to angiotensin I ([1]; dose 1.0 mg/kg oral, 25 min) [%] | Inhibition (%) of pressor response to angiotensin I ([1]; dose 1.0 mg/kg oral, 65 min) [%] | other results
1 | 0.02 | O=C(O)CCSSCCC(=O)N1C(c2ccccc2O)SC[C@H]1C(=O)O (stereo partly drawn) [Compound 41, (4R)-3-[3-(2-Carboxyethyldisulfanyl)propanoyl]-2-(2-hydroxyphenyl)-4-thiazolidinecarboxylic acid] | – | – | Inhibition (%) of pressor response to angiotensin I ([1]; dose 1.3 mg/kg oral, 25 min): 50%; Inhibition (%) of pressor response to angiotensin I ([1]; dose 1.3 mg/kg oral, 65 min): 60%
2 | 0.86 | CCCSSCCC(=O)N1C(c2ccccc2O)SC[C@H]1C(=O)O (stereo partly drawn) [Compound 34, (4R)-2-(2-Hydroxyphenyl)-3-(3-propyldisulfanylpropanoyl)-4-thiazolidinecarboxylic acid] | 45 | 55 | –
3 | 0.87 | C[C@H](CSSC[C@@H](C)C(=O)N1C(c2cccc3ccccc23)SC[C@H]1C(=O)O)C(=O)N1C(c2cccc3ccccc23)SC[C@H]1C(=O)O (stereo partly shown) [Compound 24] | – | – | –
4 | – | O=C(O)C1CCC(c2ccccc2O)N1C(=O)CCS (single isomer, unassigned) [Compound 27A, α-(+)5-(2-hydroxyphenyl)-1-(3-mercaptopropanoyl)-2-pyrrolidinecarboxylic acid, reference compound] | – | – | Inhibition (%) of pressor response to angiotensin I ([1]; dose 1.3 mg/kg oral, 25 min): 70%; Inhibition (%) of pressor response to angiotensin I ([1]; dose 1.3 mg/kg oral, 65 min): 50%
5 | – | C[C@@H]1O[C@@H](Oc2c(-c3ccc(O)c(O)c3)oc3cc(O)cc(O)c3c2=O)[C@H](O)[C@H](O)[C@H]1O [Control, Quercitrin, reference compound] | – | – | IC50 (Aldose reductase): 0.09 µM
6 | 0.097 | C[C@H](CSSC[C@@H](C)C(=O)N1C(c2ccccc2O)SC[C@H]1C(=O)O)C(=O)N1C(c2ccccc2O)SC[C@H]1C(=O)O (stereo partly drawn) [Compound 2, (4R,4'R)-3,3'-[3,3'-Dithiobis[(2S)-2-methylpropanoyl]]bis[2-(2-hydroxyphenyl)-4-thiazolidinecarboxylic acid]] | – | – | Inhibition (%) of pressor response to angiotensin I ([1]; dose 1.4 mg/kg oral, 25 min): 30%; Inhibition (%) of pressor response to angiotensin I ([1]; dose 1.4 mg/kg oral, 65 min): 35%
7 | 0.84 | O=C(O)[C@@H]1CSC(c2ccccc2O)N1C(=O)CCSSCC1CCCO1 (stereo partly shown) [Compound 39] | – | – | –
8 | – | COc1ccc(C2SC[C@@H](C(=O)O)N2C(=O)[C@H](C)CS)cc1 (stereo partly drawn) [Compound 37A, (4R)3-[(2S)-3-mercapto-2-methylpropanoyl]-2-(4-methoxyphenyl)-4-thiazolidinecarboxylic acid, reference compound] | 40 | 20 | –
9 | 0.64 | C[C@H](CSSC[C@@H](C)C(=O)N1C(c2cc(Cl)ccc2O)SC[C@H]1C(=O)O)C(=O)N1C(c2cc(Cl)ccc2O)SC[C@H]1C(=O)O (stereo partly drawn) [Compound 11, (4R,4'R)-3,3'-[3,3'-dithiobis[(2S)-2-methylpropanoyl]]bis[2-(5-chloro-2-hydroxyphenyl)-4-thiazolidinecarboxylic acid]] | – | – | –
10 | – | C[C@H](CS)C(=O)N1C(c2ccccc2O)SC[C@H]1C(=O)O (stereo partly drawn) [Compound 2A, (4R)2-(2-hydroxyphenyl)-3-[(2S)-3-mercapto-2-methylpropanoyl]-4-thiazolidinecarboxylic acid, reference compound] | – | – | Inhibition (%) of pressor response to angiotensin I ([1]; dose 1.4 mg/kg oral, 25 min): 40%; Inhibition (%) of pressor response to angiotensin I ([1]; dose 1.4 mg/kg oral, 65 min): 30%
11 | – | CC(C)(C)C(=O)OCOC(=O)[C@@H]1CSC(c2ccccc2O)N1C(=O)CCSSCCC(=O)N1C(c2ccccc2O)SC[C@H]1C(=O)OCOC(=O)C(C)(C)C (stereo partly drawn) [Compound 49, Bis[(2,2-dimethyl-1-oxopropoxy)methyl](4R,4'R)-3,3'-[3,3'-dithiobis(propanoyl)]bis[2-(2-hydroxyphenyl)-4-thiazolidinecarboxylate]] | – | – | Inhibition (%) of pressor response to angiotensin I ([1]; dose 1.3 mg/kg oral, 25 min): 35%; Inhibition (%) of pressor response to angiotensin I ([1]; dose 1.3 mg/kg oral, 65 min): 60%
12 | 0.2 | O=C(O)[C@@H]1CSC(c2ccccc2)N1C(=O)CCSSCCC(=O)N1C(c2ccccc2)SC[C@H]1C(=O)O (stereo partly shown) [Compound 7] | – | – | –
13 | 0.096 | O=C(O)[C@@H]1CSC(c2ccccc2O)N1C(=O)CCCSSCCCC(=O)N1C(c2ccccc2O)SC[C@H]1C(=O)O (stereo partly shown) [Compound 4] | – | – | –
14 | – | O=C(O)C1CCC(c2ccccc2O)N1C(=O)CCSSCCC(=O)N1C(C(=O)O)CCC1c1ccccc1O (single isomer, unassigned) [Compound 27] | – | – | Inhibition (%) of pressor response to angiotensin I ([1]; dose 1.3 mg/kg oral, 25 min): 65%; Inhibition (%) of pressor response to angiotensin I ([1]; dose 1.3 mg/kg oral, 65 min): 55%
15 | 0.73 | O=C(O)[C@@H]1CSC(c2cccc(O)c2)N1C(=O)CCSSCCC(=O)N1C(c2cccc(O)c2)SC[C@H]1C(=O)O (stereo partly shown) [Compound 10] | – | – | –
16 | 0.31 | O=C(O)[C@@H]1CSC(c2ccccc2O)N1C(=O)CSSCC(=O)N1C(c2ccccc2O)SC[C@H]1C(=O)O (stereo partly shown) [Compound 15] | – | – | –
17 | – | CCCSSC[C@@H](C)C(=O)N1CSC[C@H]1C(=O)O [Compound 43, (4R)-3-[(2S)-2-methyl-3-propyldisulfanylpropanoyl]-4-thiazolidinecarboxylic acid] | 70 | 40 | –
18 | – | C=CCSSC[C@@H](C)C(=O)N1C(c2ccc(OC)cc2)SC[C@H]1C(=O)O (stereo partly shown) [Compound 37] | 60 | 35 | –
19 | – | O=C(O)[C@@H]1CSC(c2ccccc2O)N1C(=O)CCS (stereo partly drawn) [Compound 1A, (4R)2-(2-hydroxyphenyl)-3-(3-mercaptopropanoyl)-4-thiazolidinecarboxylic acid, reference compound] | 55 | 35 | –
20 | 0.45 | Cc1ccc(C2SC[C@@H](C(=O)O)N2C(=O)[C@H](C)CSSC[C@@H](C)C(=O)N2C(c3ccc(C)cc3)SC[C@H]2C(=O)O)cc1 (stereo partly drawn) [Compound 8, (4R,4'R)-3,3'-[3,3'-dithiobis[(2S)-2-methylpropanoyl]]bis[2-(4-methylphenyl)-4-thiazolidinecarboxylic acid]] | – | – | –
21 | – | C[C@H](CS)C(=O)N1CSC[C@H]1C(=O)O [Compound 43A, (4R)3-[(2S)-3-mercapto-2-methylpropanoyl]-4-thiazolidinecarboxylic acid, reference compound] | 50 | 30 | –

Row | SMILES | IC50 (Aldose reductase; [3]) [µM] | Inhibition (%) of pressor response to angiotensin I ([1]; dose 1.0 mg/kg oral, 25 min) [%] | Inhibition (%) of pressor response to angiotensin I ([1]; dose 1.0 mg/kg oral, 65 min) [%] | other results
22 | O=C(O)[C@@H]1CSC(c2ccccc2O)N1C(=O)CCSSCCC(=O)N1C(c2ccccc2O)SC[C@H]1C(=O)O (stereo partly drawn) [Compound 1, (4R,4'R)-3,3'-[3,3'-Dithiobis(propanoyl)]bis[2-(2-hydroxyphenyl)-4-thiazolidinecarboxylic acid]] | 0.097 | 45 | 55 | LD50 [2]: 15000 mg/kg
23 | CC(=O)Oc1ccccc1C1SC[C@@H](C(=O)O)N1C(=O)CCSSCCC(=O)N1C(c2ccccc2OC(C)=O)SC[C@H]1C(=O)O (stereo partly drawn) [Compound 3, (4R,4'R)-3,3'-[3,3'-Dithiobis(propanoyl)]bis[2-(2-acetoxyphenyl)-4-thiazolidinecarboxylic acid]] | 0.87 | 15 | 55 | –
